Experimental data published in patent US9024022B2, “Substrates of O6-alkylguanine-DNA alkyltransferase and mutants thereof” (Cis Bio International, priority 2008, dated 2015).

Columns and labels:
[1] = molecular target: T1, SNAP-tag-ST26 enzyme (SNAP-tag-mGluR2 fusion protein) (Homo sapiens, UniProt P16455, A127T/C150S/C62A/G131K/G132T/K125A/M134L/N157G/R128A/R135S/S159E); assay: Enzymatic reactivity test in a cell model, SNAP-tag-mGluR2 expressed by COS 7 cells; type: cell-based; conditions: living COS 7 cells, labeling 1 h at 37° C., read-out: half saturation concentration of the enzyme
T1 construct: expressed in transfected cells; host or cells: COS 7 cells, transient electroporation
T1 sequence (P16455 1-182 C62A/K125A/A127T/R128A/G131K/G132T/M134L/R135S/C150S/N157G/S159E limits assumed): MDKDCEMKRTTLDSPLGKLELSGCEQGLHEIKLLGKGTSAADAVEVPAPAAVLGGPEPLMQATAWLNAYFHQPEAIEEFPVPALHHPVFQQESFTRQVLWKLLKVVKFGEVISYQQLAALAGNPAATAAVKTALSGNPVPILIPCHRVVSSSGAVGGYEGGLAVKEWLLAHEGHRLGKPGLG
Method: (§1) This procedure makes it possible to test the reactivity of substrates according to the invention with an AGT expressed by COS 7 cells in the form of a fusion protein with the type 2 glutamate transmembrane receptor (mGluR2).
(§2) Various mutants of AGT were analyzed in this study: SNAP-tag-ST26 or CLIP-tag from Covalys or the N-AGT mutant described by Gronemeyer et al. (Protein Engineering, Design & Selection, Vol. 19, No. 7, pp. 309-316, 2006).
• SNAP-tag-mGluR2 plasmid, prepared from the pSET-26b plasmid according to the protocol of the commercial kit (SNAP express pSTE7-26b kit, Covalys Biosciences) • Invitrogen pcdna3.1 plasmid. This plasmid is used as a negative control; the cells transfected with this plasmid are denoted “mock” and make it possible to determine the level of non-specific labeling. Protocol:
(§3) The transient transfection of the cells is carried out by electroporation using a Biorad electroporator: 10 million cells are transfected by 1 μg SNAP-tag-mGluR2+3 μg pcdna3.1 in a final volume of 300 μl. The electroporation parameters are: 280 V & 1000 μF.
(§4) The cells are then seeded at 150 000 cells per well in Greiner plates (opaque black bottom) previously incubated with polyornithine for 30 minutes at 37° C.
(§5) The cells are cultured in the DMEM+Phenol Red+10% FCS+penicillin/streptomycin+non-essential amino acids medium at 37° C. and 5% CO2. After 24 h of expression, a first washing operation is carried out with 100 μl of this same medium.
(§6) The labeling of the AGT-mGluR2 fusion protein takes place in 100 μl of complete medium with increasing concentrations of BG-fluorophore or BG-L1-A-L2-fluorophore according to the invention for 1 h at 37° C. Before the reading, 4 washing operations are carried out with 100 μl of Tris-Krebs.
(§7) For the substrates bearing fluorophores ATTO647 (example 2), DY647 (examples 1 and 5) and fluorescein-5-EX (example 3), the reading is carried out in 100 μl of Tris-Krebs in direct fluorescence at 682 nm on a Rubystar machine, and at 520 nm for those bearing fluorescein-5-EX (example 3).
(§8) For the substrates bearing the terbium KR complex (examples 4 and 6), the reading is taken in 100 μl of Tris-Krebs in time-resolved fluorescence at 620 nm on a Rubystar machine.

[2] = molecular target: T2, N-AGT enzyme (AGT-mGluR2 fusion protein) (Homo sapiens, UniProt P16455); assay: Enzymatic reactivity test in a cell model, N-AGT mutant; type: cell-based; conditions: for EC50: living cells, N-AGT mutant, labeling 1 h at 37° C., read-out: half saturation concentration of the enzyme
T2 construct: fused on or other part: type 2 metabotropic glutamate receptor (mGluR2)
T2 sequence (P16455 whole entry, looked up, the tested form may be a part): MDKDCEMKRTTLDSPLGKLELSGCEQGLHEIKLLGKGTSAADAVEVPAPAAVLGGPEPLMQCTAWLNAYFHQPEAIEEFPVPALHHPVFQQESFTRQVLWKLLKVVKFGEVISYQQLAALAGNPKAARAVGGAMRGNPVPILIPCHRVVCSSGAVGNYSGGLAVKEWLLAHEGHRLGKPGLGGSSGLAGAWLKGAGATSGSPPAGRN
Method: as §1, §2, §3, §4, §5, §6, §7, §8
In order to validate the effect of the substrate according to the invention on another mutant of AGT, a characterization of extracellular labeling with the NAGT mutant was carried out.

[3] = molecular target: T3, SNAP-tag enzyme (GST-SNAP-tag-FKBP fusion protein) (Homo sapiens, UniProt P16455, A127T/C150S/C62A/G131K/G132T/K125A/M134L/N157G/R128A/R135S/S159E); assay: Enzymatic reactivity test in an in vitro model (TR-FRET labeling of GST-SNAPtag-FKBP recombinant protein); type: biochemical; conditions: for percentage of labeling of the SNAP-tag enzyme compared with the reference substrate: in vitro, after 30 min of incubation, regardless of the concentration of substrate
T3 construct: GST (N)
T3 sequence (P16455 1-182 C62A/K125A/A127T/R128A/G131K/G132T/M134L/R135S/C150S/N157G/S159E limits assumed): T1 sequence (P16455 1-182 C62A/K125A/A127T/R128A/G131K/G132T/M134L/R135S/C150S/N157G/S159E limits assumed)
Description: The test of reactivity of the substrates according to the invention with the SNAP-tag enzyme is based on an in vitro test of labeling a recombinant protein.
In this case, use is made of the FRB and FKBP proteins that interact in the presence of rapamycin.
The FKBP protein is labeled by a first fluorophore via SNAP-tag technology: for this, a GST-SNAPtag-FKBP fusion protein is produced from the pSET7-26b plasmid according to the protocol of the commercial kit (SNAP express pSET7-26b kit, Covalys Biosciences AG, Witterswil/Switzerland). This fusion protein is then brought into contact with the first fluorophore conjugated to a reference BG derivative or to a BG derivative according to the invention.
The FRB protein is itself coupled via conventional conjugation techniques with a donor fluorescent compound (europium TBP cryptate (KTBP), Cisbio Bioassay) or acceptor fluorescent compound (DY647, Dyomics) depending on the case, following the protocols provided with these products.
The table below explains the nature of the pairs of fluorophores in each of the following examples 1 to 4:
In each example, 2 nmol of FRB recombinant protein labeled with a europium cryptate or DY647 (2nd fluorophore) are co-incubated at ambient temperature with 2 nmol of GST-SNAP-tag-FKBP recombinant protein and increasing concentrations of BG labeled by the first fluorophore (BG-fluorophore of the prior art or BG-L1-A-L2-fluorophore according to the invention).
The fluorescence readings are taken at 620 nm and at 665 nm on a RubyStar machine (BMG laboratory) after an excitation at 337 nm. The readings are carried out before and after induction of the FRB/FKBP protein interaction by 100 nM of rapamycin. This interaction is expressed by the emission of a TR-FRET signal. Since the SNAP-tag enzyme can only attach to a single fluorescent group, the increase in the TR-FRET signal is directly proportional to the percentage of labeled proteins in the reaction medium. This in vitro model makes it possible to establish enzymatic labeling kinetics as a function of the excess of substrate involved in the reaction.
The results are indicated either as d665 or as % labeling according to the following formulae: d 665=(signal at 665 nm with the GST-ST-FKBP protein)−(signal at 665 nm without the GST-ST-FKBP protein).
The percentage of labeling is obtained by comparison with the signal corresponding to the maximum labeling that is obtained after 18 hours of incubation. % labeling=(d665 at t measured/d665 18 h of incubation)×100. Procedure of the Enzymatic Reactivity Test in a Cell Model

[4] = molecular target: T4, CLIP-tag enzyme (CLIPtag-mGluR2 fusion protein) (Homo sapiens, UniProt P16455, K32I/L33F/M60I/C62A/Y114E/Q115S/Q116H/A121V/K125A/A127T/R128A/G131N/G132T/M134L/R135D/C150Q/S151G/S152D/G153S/A154D/N157P/S159L); assay: Cell model with CLIPtag-mGluR2 and SNAPtag-mGluR2 cotransfection, TR-FRET at 665 nm; type: cell-based; conditions: cells incubated with 300 nM of BG-methylbenzamide-DY647; TR-FRET 665 nm; read-out: half saturation concentration of CLIPtag
T4 construct: The co-expressed SNAPtag-mGluR2 is a separate chain that carries the FRET partner dye
T4 sequence (P16455 1-207 K32I/L33F/M60I/C62A/Y114E/Q115S/Q116H/A121V/K125A/A127T/R128A/G131N/G132T/M134L/R135D/C150Q/S151G/S152D/G153S/A154D/N157P/S159L): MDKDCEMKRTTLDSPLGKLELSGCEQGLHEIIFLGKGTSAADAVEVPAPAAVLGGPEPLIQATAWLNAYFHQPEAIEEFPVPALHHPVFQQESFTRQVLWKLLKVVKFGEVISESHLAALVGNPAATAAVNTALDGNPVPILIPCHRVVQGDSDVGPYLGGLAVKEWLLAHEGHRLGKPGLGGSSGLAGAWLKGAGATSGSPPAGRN
Method: The cell model used in this example is different from that used in the preceding examples:
The cells are either cotransfected with a plasmid coding for the fusion protein CLIPtag-mGluR2 and another plasmid coding for the fusion protein SNAPtag-mGluR2, or transfected with a single plasmid coding for the fusion protein SNAPtag-mGluR2.
Each cell population is incubated in the presence of 300 nM of BG-methylbenzamide-DY647 and increasing concentrations of reference substrates (BC-Tb(KR)) or of a substrate according to the invention (BC-methylbenzamide-Tb(KR)). The fluorescence is measured at 665 nm in TR-FRET mode on a Rubystar machine and the signal measured is representative of a transfer of energy following the dimerization of two monomers of mGluR2 labeled respectively by DY647 and Tb(KR).
This example is carried out in the same way as example 7 but the cells are incubated in the presence of 300 nM of BG-methylbenzamide-Tb(KR) and increasing concentrations of reference substrate (BC-DY647) or of substrate according to the invention (BC-methylbenzamide-DY647), the formulae of which are below: […]

Question: How did the EC50 [1] turn out when “benzylguanine-Tb(KR) [BG-Tb(KR), reference compound]” was run?
Answer: 60 nM

Question: Which results are given for `CCN1/C(=C/C=C/C=C/C2=[N+](CC)c3ccc(S(=O)(=O)[O-])cc3C2(C)C)C(C)(CCCC(=O)NCc2ccc(COc3nc(N)nc4[nH]cnc34)cc2)c2cc(S(=O)(=O)O)ccc21` (stereo not drawn) [BG-DY647, benzylguanine-Dy647, reference compound]?
Answer: EC50 [1]: 168 nM; EC50 [2]: 43 nM

Question: What does the source list for `CCN1/C(=C/C=C/C=C/C2=[N+](CC)c3ccc(S(=O)(=O)[O-])cc3C2(C)C)C(C)(CCCC(=O)NCc2ccc(C(=O)NCc3ccc(COc4nc(N)nc5[nH]cnc45)cc3)cc2)c2cc(S(=O)(=O)O)ccc21` (stereo not drawn) [BG-methylbenzamide-DY647, Dy647-methylbenzamide-BG]?
Answer: EC50 [1]: 91.3 nM; percentage of labeling of the SNAP-tag enzyme compared with the reference substrate [3]: greatly improved; half saturation concentration, times lower relative to the reference substrate ([2]; N-AGT enzyme, versus BG-DY647): around 2 times; EC50 [2]: 22.3 nM

Question: Which “percentage of labeling of the SNAP-tag enzyme compared with the reference substrate” value [3] does the source give for `CCN1c2cc3c(cc2C(C)=CC1(C)C)C(c1ccc(C(=O)N(C)CCCC(=O)NCc2ccc(C(=O)NCc4ccc(COc5nc(N)nc6[nH]cnc56)cc4)cc2)cc1)=c1cc2c(cc1O3)=[N+](CC)C(C)(C)C=C2C` [BG-methylbenzamide-ATTO647N, ATTO647N-methylbenzamide-BG] here?
Answer: much better

Question: For “Atto465-BG [BG-Atto465, reference compound]”, which EC50 [1] is on record?
Answer: 1980 nM

Question: For “Tb(KR)-methylbenzamide-BC [BC-methylbenzamide-Tb(KR)]”, which EC50 [4] is on record?
Answer: 131 nM

Question: For `Nc1ccc2cc3ccc(N)cc3[n+](CCCC(=O)NCc3ccc(C(=O)NCc4ccc(COc5cc(N)nc6[nH]cnc56)cc4)cc3)c2c1` [BG-methylbenzamide-Atto465, Atto465-methylbenzamide-BG], which EC50 [1] is on record?
Answer: 213 nM

Question: For `Nc1nc(OCc2ccc(CNC(=O)c3ccc(CNC(=O)CCSCC(=O)Nc4ccc(-c5c6ccc(=O)cc-6oc6cc(O)ccc56)c(C(=O)O)c4)cc3)cc2)c2nc[nH]c2n1` [BG-methylbenzamide-fluorescein-5-EX, fluorescein-5-EX-benzylamide-BG], which “reactivity of the substrate with the SNAP-tag enzyme” value ([3]; in vitro protein labeling, compared with reference substrate) is on record?
Answer: better than that of the reference substrate
